Data published in the NIST ThermoML archive (doi:10.1016/j.jct.2017.08.029).
Numbers after ± are expanded uncertainties.

Test: wn = mass fraction of the nth substance listed
Conditions: 100 kPa, Liquid, Direct current cell with electrodes

C=CC[P+](c1ccccc1)(c1ccccc1)c1ccccc1.[Br-] [allyltriphenylphosphonium bromide] + OCCOCCO
electrical conductivity [S/m]
Conditions	293.15 K	303.15 K	313.15 K	323.15 K	333.15 K	343.15 K
w1 = 0.1842	0.0997 ± 0.028	0.115 ± 0.033	0.14 ± 0.04	0.175 ± 0.05	0.224 ± 0.064	0.279 ± 0.079
w1 = 0.2653	0.118 ± 0.034	0.129 ± 0.037	0.159 ± 0.045	0.198 ± 0.056	0.253 ± 0.072	0.315 ± 0.089
w1 = 0.4745	0.137 ± 0.039	0.148 ± 0.042	0.177 ± 0.05	0.222 ± 0.063	0.274 ± 0.078	0.339 ± 0.096

C=CC[P+](c1ccccc1)(c1ccccc1)c1ccccc1.[Br-] [allyltriphenylphosphonium bromide] + OCCOCCOCCO
electrical conductivity [S/m]
Conditions	293.15 K	303.15 K	313.15 K	323.15 K	333.15 K	343.15 K
w1 = 0.1375	0.037 ± 0.011	0.0441 ± 0.013	0.0643 ± 0.018	0.0881 ± 0.025	0.116 ± 0.033	0.149 ± 0.043
w1 = 0.2033	0.0477 ± 0.014	0.0632 ± 0.018	0.0905 ± 0.026	0.118 ± 0.034	0.155 ± 0.044	0.208 ± 0.059
w1 = 0.3895	0.067 ± 0.019	0.0805 ± 0.023	0.112 ± 0.032	0.147 ± 0.042	0.193 ± 0.055	0.244 ± 0.069
